In PubChem BioAssay AID179 (DTP/NCI, 2004):
The source made the active and inactive calls.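 Rule for the calls: active = compounds giving half or more protection of infected cells from virus-caused growth loss, again on retest; inactive = the rest.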

Test system: CEM cells HIV-1 protection, formazan growth assay
Assay: NCI AIDS Antiviral Assay
Details: for IC50: measured here: growth of uninfected CEM cells
Procedure, shortened: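 Protection of CEM cells against HIV-1 was scored from cell growth (soluble formazan) across five concentrations, with parallel uninfected cells. Lack of protection may reflect toxicity.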

Structure (SMILES): Cc1cc(C(C)C)cc(O)c(=O)c1
- outcome: inactive

Structure (SMILES): CCOC(=O)CCC1(C)OCC(COC)O1 (configuration not stated)
- EC50: > 200 µM
- IC50: > 200 µM

Structure (SMILES): C=CC1(O)CC(n2cc(C)c(=O)[nH]c2=O)OC1CO (configuration not stated)
- EC50: > 200 µM
- IC50: > 200 µM

Structure (SMILES): Cc1ccc(Nc2nc(NS(=O)(=O)c3cc(C)c(Cl)cc3S)n[nH]2)cc1
- EC50: > 191 µM
- IC50: 178 µM

Structure (SMILES): COc1ccc(C(=O)CC(=O)C(=O)Nc2ccc(C)c(C)c2)cc1
- EC50: > 22.4 µM
- IC50: > 22.4 µM

Structure (SMILES): O=c1[nH]c(Nc2ccc(Cl)cc2)nc2nc[nH]c12
- EC50: > 100 µM
- IC50: 89.1 µM

Structure (SMILES): COc1ccc(-c2sc(N)c(C#N)c2C)cc1OC
- outcome: inactive

Structure (SMILES): C(=N\OCc1ccccc1)/c1ncccc1C1OCCO1
- EC50: > 331 µM
- IC50: 309 µM

Structure (SMILES): CCn1c(O)c(C=Nc2ccccc2)s/c1=N/Nc1nc(-c2ccc([N+](=O)[O-])cc2)cs1
- EC50: > 200 µM
- IC50: 14.5 µM

Structure (SMILES): CC(=O)N(/N=C\c1ccc([N+](=O)[O-])cc1)c1ccccc1
- EC50: > 126 µM
- IC50: > 126 µM

Structure (SMILES): C=CCNC(=S)Nc1ccccn1
- EC50: > 200 µM
- IC50: > 200 µM

Structure (SMILES): Cc1cc(C#N)c[n+](C)c1
- EC50: > 200 µM
- IC50: > 200 µM

Structure (SMILES): NNC(=O)N/N=C1\C(=O)N(c2ccc(Cl)c(Cl)c2)C(=O)C(=O)C1c1nc2ccccc2s1 (configuration not stated)
- outcome: inactive

Structure (SMILES): C(=N/N=C(N/N=C/C1CNCCN1)N/N=C/C1CNCCN1)/C1CNCCN1 (configuration not stated)
- EC50: > 631 µM
- IC50: > 631 µM

Structure (SMILES): CC(=O)O[C@H]1CC[C@@]2(C)C(=CC[C@@H]3C2CC[C@@]2(C)C3CC[C@@H]2c2ncc(-c3ccccc3)s2)C1 (some centres not stated)
- EC50: > 52.5 µM
- IC50: > 52.5 µM

Structure (SMILES): OCCN1CCOC(O)(c2cccc(C(F)(F)F)c2)C1 (configuration not stated)
- EC50: > 200 µM
- IC50: 115 µM

Structure (SMILES): COc1ccc(C(C#N)NNC(=O)Cc2ccccc2)cc1OC (configuration not stated)
- EC50: > 398 µM
- IC50: 331 µM

Structure (SMILES): Cc1ccc(S(=O)(=O)OC2=C/C(=N\c3onc(C)c3C)c3ccccc3C2=O)cc1
- EC50: > 200 µM
- IC50: 3.09 µM

Structure (SMILES): Clc1cc(Cl)c2c(c1)[nH]c1nc3ccccc3nc12
- EC50: > 18.2 µM
- IC50: > 18.2 µM

Structure (SMILES): Cn1cnc([N+](=O)[O-])c1SC1=NCCS1
- EC50: > 1020 µM
- IC50: 7.08 µM

Structure (SMILES): CC(C)C12NC(=O)NC(=O)N1CCS2 (configuration not stated)
- outcome: inactive

Structure (SMILES): C=CCOc1ccc(/C(N=Nc2ccccc2)=N/NC(=O)c2ccccc2)cc1OC
- EC50: > 200 µM
- IC50: 107 µM

Structure (SMILES): CCC1C(C)C=CN1c1nc(N)nc(NS(=O)(=O)c2cc(C)c(Cl)cc2S)n1 (configuration not stated)
- EC50: 129 µM
- IC50: > 200 µM

Structure (SMILES): O=C(O)CCC1c2[nH]c3ccccc3c2CCN1Cc1ccccc1 (configuration not stated)
- outcome: inactive

Structure (SMILES): COc1ccc(NC2=NCCO2)c2ccccc12
- EC50: > 200 µM
- IC50: 46.8 µM

Structure (SMILES): OCC1OC(n2cnc(C3=NCCCN3)n2)C(O)C1O (configuration not stated)
- outcome: inactive

Structure (SMILES): c1ccc(OCCSCCCCCCCCCCSCCOc2ccccc2)cc1
- EC50: > 8.51 µM
- IC50: > 8.51 µM

Structure (SMILES): Cc1ccc(C2=C(O)C(=O)C(c3ccc(C)cc3)=C(O)C2=O)cc1
- EC50: > 52.5 µM
- IC50: 26.3 µM

Structure (SMILES): CC1OC(OC23C(=O)C[C@](C)(O)CC2(O)C=CC2C3=c3oc(-c4ccc(O)cc4)c4c3=C(C(=O)C(C3CC(OC5CCC(OC6CC(O)C(O)C(C)O6)C(C)O5)C(O)C(C)O3)=C4)C2O)CCC1O (some centres not stated)
- EC50: > 19.1 µM
- IC50: > 19.1 µM

Structure (SMILES): CCCCCCCCCCCC(=O)OCCOCCOCCOCCOCCOCc1ccc(OC)cc1
- outcome: inactive

Structure (SMILES): Cc1ccc(Nc2[nH]c(=O)[nH]c(=O)c2N=O)cc1
- EC50: > 200 µM
- IC50: > 200 µM

Structure (SMILES): S=C1CCSc2c(ccc3ccccc23)N1
- EC50: > 200 µM
- IC50: 166 µM
